A short description of assay [1]: SAR analysis of small molecule activators of Apaf-1 using a LZ-Caspase-9/Caspase-3 Fluorescent Selectivity assay - Set 2. The format is functional. Particulars: read-out: EC50_Mean.
In assay [2] the target is T1, Apoptotic protease-activating factor 1 (Homo sapiens, UniProt O14727).
T1 sequence (O14727 whole entry): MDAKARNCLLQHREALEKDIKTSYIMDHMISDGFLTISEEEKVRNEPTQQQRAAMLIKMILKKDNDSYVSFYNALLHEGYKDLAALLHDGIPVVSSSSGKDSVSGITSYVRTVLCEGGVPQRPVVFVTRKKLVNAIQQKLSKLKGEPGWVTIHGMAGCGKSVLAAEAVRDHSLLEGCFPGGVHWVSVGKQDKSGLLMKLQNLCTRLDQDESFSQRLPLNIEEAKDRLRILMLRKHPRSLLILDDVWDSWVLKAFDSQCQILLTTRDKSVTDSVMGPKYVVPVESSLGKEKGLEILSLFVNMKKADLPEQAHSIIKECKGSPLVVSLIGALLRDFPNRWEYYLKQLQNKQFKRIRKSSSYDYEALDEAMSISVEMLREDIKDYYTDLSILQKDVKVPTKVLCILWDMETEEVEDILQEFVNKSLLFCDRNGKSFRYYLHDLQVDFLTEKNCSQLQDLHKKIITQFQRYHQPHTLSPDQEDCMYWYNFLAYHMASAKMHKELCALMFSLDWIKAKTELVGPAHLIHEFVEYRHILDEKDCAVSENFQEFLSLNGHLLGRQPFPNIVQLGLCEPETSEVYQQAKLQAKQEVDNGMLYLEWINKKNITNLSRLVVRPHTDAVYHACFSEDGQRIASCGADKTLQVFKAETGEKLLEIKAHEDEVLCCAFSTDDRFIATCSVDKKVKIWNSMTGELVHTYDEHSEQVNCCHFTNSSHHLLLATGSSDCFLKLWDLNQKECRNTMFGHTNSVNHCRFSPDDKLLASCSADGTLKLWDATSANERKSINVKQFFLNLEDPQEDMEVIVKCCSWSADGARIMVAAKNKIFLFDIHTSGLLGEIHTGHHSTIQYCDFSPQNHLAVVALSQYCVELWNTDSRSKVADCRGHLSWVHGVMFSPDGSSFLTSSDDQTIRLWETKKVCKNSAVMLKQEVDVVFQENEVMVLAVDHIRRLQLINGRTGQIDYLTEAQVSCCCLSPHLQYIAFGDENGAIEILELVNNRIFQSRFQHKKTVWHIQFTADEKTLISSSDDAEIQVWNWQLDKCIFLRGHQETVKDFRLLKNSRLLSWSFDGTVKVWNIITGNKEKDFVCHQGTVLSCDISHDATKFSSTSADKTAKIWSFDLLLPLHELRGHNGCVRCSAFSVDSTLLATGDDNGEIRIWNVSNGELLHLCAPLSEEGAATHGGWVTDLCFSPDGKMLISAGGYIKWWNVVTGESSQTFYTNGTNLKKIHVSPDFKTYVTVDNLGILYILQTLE
In words: SAR analysis of small molecule Activators of Apaf-1 in a Fluorescent assay - set 2. The class given is functional. The note with it: read-out: EC50_Mean.

Structures are written as SMILES. The source made the active and inactive calls.

On to `O=C(O)C1CC(c2ccccc2O)=NO1` (configuration not stated), for which the EC50 in assay [1] and in assay [2] was > 100 µM (inactive) each time.

The values above are taken from ChEMBL document CHEMBL1201862, “PubChem BioAssay data set” (2004).
